From the supplement of paper PMC10307832

Compound: CCN(CCO)CCCC(C)Nc1ccnc2cc(Cl)ccc12 [Hydroxychloroquine] + COc1cc2c(Oc3ccc(NC(=O)C4(C(=O)Nc5ccc(F)cc5)CC4)cc3F)ccnc2cc1OCCCN1CCOCC1 [Foretinib] (partner 0.25 µM)
Assay: relative viability (nuclei count vs DMSO), 5 days (fraction); higher = more cells survive
Summary of the method: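 Lung cancer cell lines were seeded in 1536-well plates and dosed by pin tool the next day, with either a single drug or a fixed anchor-drug dose combined with five library-drug doses (not always all listed) spaced in √10 steps. Five days later, one step fixed the cells and stained their nuclei (final 0.05% Triton X-100, 1% formaldehyde, 1 ug/ml Hoechst), and nuclei were counted on 4× images. Relative viability is the nuclei count in treated wells divided by the count in vehicle wells, and each value is the median of duplicate plates.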

Row | Cell Line | relative viability (first compound 0.5 µM) | relative viability (first compound 1.581 µM) | relative viability (first compound 5 µM) | relative viability (first compound 15.81 µM) | relative viability (first compound 50 µM)
1 | LCLC-97TM1 | 0.989 | 0.934 | 0.979 | 0.983 | 1.01
2 | HARA | 0.957 | 0.918 | 0.891 | 0.921 | 1.07
3 | HCC-78 | 0.602 | 0.498 | 0.482 | 0.488 | 0.553
4 | NCI-H1666 | 0.969 | 0.949 | 0.876 | 0.894 | 0.872
5 | NCI-H2347 | 0.936 | 0.663 | 0.885 |  | 0.683
6 | PC-14 | 0.909 | 0.987 | 1.01 | 0.972 | 0.962
7 | NCI-H2023 | 0.806 | 0.739 | 0.749 | 0.779 | 0.776
8 | 201T | 1.21 | 1.05 | 1.03 | 1.2 | 1.2
9 | NCI-H1915 | 1.07 | 1.11 | 1.15 | 1.1 | 1.12
10 | NCI-H2009 | 1.19 | 1.21 | 1.24 | 1.16 | 1.18
11 | BEN | 0.647 | 0.634 | 0.588 | 0.567 | 0.577
12 | PC-3 [JPC-3] | 1.07 | 1.14 | 0.99 | 1.02 | 1.07
13 | SK-MES-1 | 0.883 | 0.822 | 1.04 | 0.901 | 0.792
14 | NCI-H838 | 1.07 | 0.978 | 1.08 | 0.98 | 1.13
15 | NCI-H1355 | 0.941 | 0.965 | 0.956 | 1.02 | 0.979
16 | NCI-H1975 | 0.942 | 0.866 | 0.988 | 1.05 | 0.97
17 | LK-2 | 1.31 | 1.41 |  | 1.28 | 0.955
18 | NCI-H727 | 0.752 | 0.767 | 0.735 | 0.794 | 0.922
19 | HCC-366 | 0.938 | 0.891 | 0.902 | 0.945 | 0.923
20 | HOP-62 | 1.15 | 1.24 | 1.14 | 1.27 | 1.23
21 | NCI-H1944 | 0.951 | 0.936 | 0.775 | 0.89 | 0.785
22 | UMC-11 |  | 0.978 | 1.12 | 1.04 | 1.19
23 | LU99A | 0.914 | 0.724 | 0.786 | 0.789 | 0.861
24 | NCI-H650 | 1.04 | 0.888 | 0.983 | 1.03 | 0.97
25 | A-427 | 1.05 | 1.09 | 0.974 | 1.15 | 1.16

Row | Cell Line | relative viability (first compound 0.5 µM) | relative viability (first compound 1.581 µM) | relative viability (first compound 5 µM) | relative viability (first compound 15.81 µM) | relative viability (first compound 50 µM)
26 | COR-L 105 | 0.896 | 1.11 | 0.951 | 1.23 | 0.997
27 | NCI-H460 | 1.01 | 0.995 | 1.08 | 1.04 | 1.25
28 | NCI-H2126 | 1.21 | 1.11 | 1.33 | 1.08 | 1.1
29 | EBC-1 | 0.122 | 0.093 | 0.0998 | 0.11 | 0.132
30 | NCI-H520 | 0.833 | 0.781 | 0.801 | 0.839 | 0.748
31 | SW 1573 | 1.06 | 0.774 | 1.08 | 0.686 | 0.871
32 | NCI-H322M | 1 | 0.937 | 0.934 | 1.03 | 0.935
33 | EKVX | 0.824 | 0.795 | 0.753 | 0.767 | 0.75
34 | NCI-H1734 | 0.893 | 0.864 | 0.864 | 0.784 | 0.866
35 | SW 900 | 0.941 | 0.824 | 0.866 | 0.816 | 0.869
36 | ABC-1 | 0.761 | 0.984 | 1.18 | 1.25 | 1.28
37 | NCI-H596 | 0.758 | 0.669 | 0.875 | 0.823 | 0.855
38 | EPLC-272H | 0.776 | 0.673 | 0.709 | 0.703 | 0.799
39 | NCI-H441 | 0.919 | 1.07 | 1.02 | 1.02 | 0.861
40 | NCI-H1993 | 0.867 | 0.711 | 0.735 | 0.887 | 0.79
41 | NCI-H647 | 1.25 | 1.16 | 1.18 | 1.39 | 1.25
42 | NCI-H1793 | 0.821 | 0.618 | 0.624 | 0.661 | 0.534
43 | NCI-H1563 | 0.886 | 0.804 | 0.88 | 0.825 | 0.965
44 | NCI-H1395 | 1.06 | 0.989 | 0.872 | 0.963 | 1.02
45 | NCI-H1299 | 1.09 | 1.05 | 1.14 | 1.12 | 1.06
46 | HCC-827 | 1.13 | 0.956 | 1.05 | 1.2 | 1.08
47 | ChaGo-K-1 | 0.939 | 1.04 | 0.929 | 0.911 | 1.04
48 | NCI-H2228 | 0.809 | 0.862 | 0.839 | 0.969 | 0.834
49 | NCI-H2170 | 1.04 | 1.04 | 0.973 | 1.01 | 1.1
50 | EMC-BAC-2 | 0.998 | 0.877 | 1.08 | 0.941 | 0.985

Row | Cell Line | relative viability (first compound 0.5 µM) | relative viability (first compound 1.581 µM) | relative viability (first compound 5 µM) | relative viability (first compound 15.81 µM) | relative viability (first compound 50 µM)
51 | A549 | 0.953 | 0.905 | 0.951 | 0.952 | 1.11
52 | NCI-H23 | 1.04 | 0.968 | 0.979 | 0.99 | 0.903
53 | SK-LU-1 | 0.849 | 0.769 | 0.834 | 0.787 | 0.926
54 | NCI-H358 | 0.639 | 0.628 | 0.643 | 0.593 | 0.827
55 | LC-2-ad | 0.956 | 0.895 | 0.895 | 0.921 | 1.05
56 | HCC-15 | 1.1 | 1.04 | 1.04 | 1.04 | 1.05
57 | NCI-H2405 | 1.11 | 0.975 | 1.05 | 1.02 | 1.05
58 | LXF-289 | 0.96 | 0.959 | 0.969 | 1.03 | 1.08
59 | CAL-12T | 0.974 | 1.04 | 1.04 | 1.33 | 1.06
60 | COR-L23 | 1.04 | 0.993 | 1.02 | 0.994 | 1.18
61 | NCI-H1755 | 0.906 | 0.797 | 0.854 | 0.922 | 0.842
62 | NCI-H1437 | 1.26 | 1.26 | 1.33 | 1.31 | 1.28
63 | NCI-H2085 | 1.09 | 1.02 | 0.932 | 0.931 | 0.98
64 | IA-LM | 1.15 | 1.31 | 1.12 | 1.26 | 1.27
65 | H3255 | 0.924 | 0.84 | 0.818 | 0.783 | 0.798
66 | NCI-H661 | 0.998 | 0.992 | 1.01 | 1 | 1.05
67 | LCLC-103H | 0.776 | 0.707 | 0.848 | 0.893 | 0.887
68 | LOU-NH91 | 0.921 | 0.831 | 0.949 | 0.94 | 0.914
69 | NCI-H1650 | 0.996 | 1.01 | 1.02 | 0.999 | 1.15
70 | NCI-H3122 | 0.92 | 0.934 | 0.945 | 0.985 | 1.03
71 | RERF-LC-KJ | 0.757 | 0.825 | 0.872 | 0.918 | 0.941
72 | Calu-6 | 0.922 | 0.855 | 0.888 | 0.872 | 0.879
73 | NCI-H1651 | 0.934 | 0.762 | 0.865 | 0.925 | 0.88
74 | NCI-H2087 | 1.21 | 1.21 | 1.18 | 1.11 | 0.972
